Test results published in US12098148B2, “Therapeutic compounds” (C4X Discovery Limited, priority 2018, dated 2024).

Key:
[1] = tested on: NQO1 mRNA in BEAS-2B cells; assay: Beas2B NQO1 mRNA cell based assay; set-up: species or system human; details: Homo sapiens, BEAS-2B, 24 h, 24 h compound treatment, increase in NQO1 mRNA vs vehicle (0.1% DMSO), read-out: EC50
Method in brief: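 BEAS-2B human bronchial epithelial cells exposed to compound for 24 h at 37 °C, 5% CO2. NQO1 mRNA measured by one-step TaqMan RT-qPCR on unpurified lysates, normalized to β-actin; relative expression by ΔΔCT method.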

[2] = target: human KEAP1 (N-term, residues 321-609) (Homo sapiens, UniProt Q14145); assay: biochemical;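 also: fluorescence polarization competition assay of Kelch domain binding to NRF2, 12-point 1:3 dilution series from 10 µM, read after 1 h at room temperature, floor 10 nM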
Sequence of human KEAP1 (N-term, residues 321-609) (Q14145 321-609): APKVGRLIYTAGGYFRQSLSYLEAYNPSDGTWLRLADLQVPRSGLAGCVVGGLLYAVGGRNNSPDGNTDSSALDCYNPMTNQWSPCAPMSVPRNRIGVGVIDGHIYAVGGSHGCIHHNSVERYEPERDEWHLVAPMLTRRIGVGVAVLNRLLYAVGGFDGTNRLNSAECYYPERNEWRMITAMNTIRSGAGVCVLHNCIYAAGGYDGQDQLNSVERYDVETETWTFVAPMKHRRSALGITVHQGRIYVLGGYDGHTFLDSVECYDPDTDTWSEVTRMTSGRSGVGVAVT

For O=C(O)[C@H]1CCCC[C@H]1C(=O)N1CCc2c(Br)ccc(OCc3nnc4n3CCCC4)c2[C@H]1CN1Cc2ccccc2C1=O [Example 44, (1S,2R)-2-((S)-5-bromo-1-((1-oxoisoindolin-2-yl)methyl)-8-((5,6,7,8-tetrahydro-[1,2,4]triazolo[4,3-a]pyridin-3-yl)methoxy)-1,2,3,4-tetrahydroisoquinoline-2-carbonyl)cyclohexane-1-carboxylic acid], the EC50 [1] was 10 nM and the IC50 [2] was 4.2 nM.
Molecule CC(Oc1ccc(Br)c2c1[C@@H](CN1Cc3ccccc3C1=O)N(C(=O)[C@@H]1CCCC[C@@H]1C(=O)O)CC2)c1cn(C)nn1 (stereo partly drawn) [Example 45, (1S,2R)-2-((1S)-5-bromo-8-(1-(1-methyl-1H-1,2,3-triazol-4-yl)ethoxy)-1-((1-oxoisoindolin-2-yl)methyl)-1,2,3,4-tetrahydroisoquinoline-2-carbonyl)cyclohexane-1-carboxylic acid] has an EC50 [1] of 110 nM and an IC50 [2] of 4.9 nM.
In the case of Cn1nnc2cc(COc3ccc(Cl)c4c3[C@@H](CN3Cc5ccccc5C3=O)N(C(=O)[C@@H]3CCCC[C@@H]3C(=O)O)CC4)ccc21 [Example 48, (1S,2R)-2-((S)-5-chloro-8-((1-methyl-1H-benzo[d][1,2,3]triazol-5-yl)methoxy)-1-((1-oxoisoindolin-2-yl)methyl)-1,2,3,4-tetrahydroisoquinoline-2-carbonyl)cyclohexane-1-carboxylic acid], the EC50 [1] is reported as 4.4 nM and the IC50 [2] is reported as 8 nM.
With Cc1cc(COc2ccc(Cl)c3c2[C@@H](CN2Cc4ccccc4C2=O)N(C(=O)[C@@H]2CCCC[C@@H]2C(=O)O)CC3)no1 [Example 49, (1S,2R)-2-((S)-5-chloro-8-((5-methylisoxazol-3-yl)methoxy)-1-((1-oxoisoindolin-2-yl)methyl)-1,2,3,4-tetrahydroisoquinoline-2-carbonyl)cyclohexane-1-carboxylic acid] the EC50 [1] was 19 nM and the IC50 [2] was 11 nM.
Molecule O=C(O)[C@H]1CCCC[C@H]1C(=O)N1CCc2c(Cl)ccc(OCc3nnc4ccccn34)c2[C@H]1CN1Cc2ccccc2C1=O [Example 50] has an EC50 [1] of 2 nM and an IC50 [2] of 7.7 nM.
O=C(O)[C@H]1CCCC[C@H]1C(=O)N1CCc2c(Cl)ccc(OCc3nccn3CC(F)(F)F)c2[C@H]1CN1Cc2ccccc2C1=O [Example 51, (1S,2R)-2-((S)-5-chloro-1-((1-oxoisoindolin-2-yl)methyl)-8-((1-(2,2,2-trifluoroethyl)-1H-imidazol-2-yl)methoxy)-1,2,3,4-tetrahydroisoquinoline-2-carbonyl)cyclohexane-1-carboxylic acid] gave an EC50 [1] of 110 nM and an IC50 [2] of 10 nM.
For O=C(O)[C@H]1CCCC[C@H]1C(=O)N1CCc2c(Cl)ccc(OCc3nccn3CC(F)F)c2[C@H]1CN1Cc2ccccc2C1=O [Example 52, (1S,2R)-2-((S)-5-chloro-8-((1-(2,2-difluoroethyl)-1H-imidazol-2-yl)methoxy)-1-((1-oxoisoindolin-2-yl)methyl)-1,2,3,4-tetrahydroisoquinoline-2-carbonyl)cyclohexane-1-carboxylic acid], the EC50 [1] was 140 nM and the IC50 [2] was 13 nM.
In the case of Cn1nnc(COc2ccc(Cl)c3c2[C@@H](CN2Cc4ccccc4C2=O)N(C(=O)[C@@H]2CCCC[C@@H]2C(=O)O)CC3)c1C(F)F [Example 53, (1S,2R)-2-((S)-5-chloro-8-((5-(difluoromethyl)-1-methyl-1H-1,2,3-triazol-4-yl)methoxy)-1-((1-oxoisoindolin-2-yl)methyl)-1,2,3,4-tetrahydroisoquinoline-2-carbonyl)cyclohexane-1-carboxylic acid], the EC50 [1] is reported as 1.4 nM and the IC50 [2] is reported as 6.2 nM.
Cn1nnc(COc2ccc(Cl)c3c2[C@@H](CN2Cc4ccccc4C2=O)N(C(=O)[C@@H]2CCCC[C@@H]2C(=O)O)CC3)c1C(F)(F)F [Example 54, (1S,2R)-2-((S)-5-Chloro-8-((1-methyl-5-(trifluoromethyl)-1H-1,2,3-triazol-4-yl)methoxy)-1-((1-oxoisoindolin-2-yl)methyl)-1,2,3,4-tetrahydroisoquinoline-2-carbonyl)cyclohexane-1-carboxylic acid] showed an EC50 [1] of 7.2 nM and an IC50 [2] of 3.6 nM.
CCn1ccc(COc2ccc(Cl)c3c2[C@@H](CN2Cc4ccccc4C2=O)N(C(=O)[C@@H]2CCCC[C@@H]2C(=O)O)CC3)n1 [Example 55, (1S,2R)-2-((S)-5-chloro-8-((1-ethyl-1H-pyrazol-3-yl)methoxy)-1-((1-oxoisoindolin-2-yl)methyl)-1,2,3,4-tetrahydroisoquinoline-2-carbonyl)cyclohexane-1-carboxylic acid] gave an EC50 [1] of 73 nM and an IC50 [2] of 5.6 nM.
Work on Cn1cnc(COc2ccc(Cl)c3c2[C@@H](CN2Cc4ccccc4C2=O)N(C(=O)[C@@H]2CCCC[C@@H]2C(=O)O)CC3)c1C(F)F [Example 56, (1S,2R)-2-((S)-5-Chloro-8-((5-(difluoromethyl)-1-methyl-1H-imidazol-4-yl)methoxy)-1-((1-oxoisoindolin-2-yl)methyl)-1,2,3,4-tetrahydroisoquinoline-2-carbonyl)cyclohexane-1-carboxylic acid] yielded an EC50 [1] of 4.8 nM and an IC50 [2] of 4.2 nM.
CC(C)n1cc(COc2ccc(Cl)c3c2[C@@H](CN2Cc4ccccc4C2=O)N(C(=O)[C@@H]2CCCC[C@@H]2C(=O)O)CC3)nn1 [Example 57, (1S,2R)-2-((S)-5-chloro-8-((1-isopropyl-1H-1,2,3-triazol-4-yl)methoxy)-1-((1-oxoisoindolin-2-yl)methyl)-1,2,3,4-tetrahydroisoquinoline-2-carbonyl)cyclohexane-1-carboxylic acid] showed an EC50 [1] of 2.7 nM and an IC50 [2] of 6.6 nM.
Molecule CC(C)n1cc(COc2ccc(F)c3c2[C@@H](CN2Cc4ccccc4C2=O)N(C(=O)[C@@H]2CCCC[C@@H]2C(=O)O)CC3)nn1 [Example 58, (1S,2R)-2-((S)-5-fluoro-8-((1-isopropyl-1H-1,2,3-triazol-4-yl)methoxy)-1-((1-oxoisoindolin-2-yl)methyl)-1,2,3,4-tetrahydroisoquinoline-2-carbonyl)cyclohexane-1-carboxylic acid] has an EC50 [1] of 68 nM and an IC50 [2] of 8 nM.
For Cc1ccc(OCc2cn(C(C)C)nn2)c2c1CCN(C(=O)[C@@H]1CCCC[C@@H]1C(=O)O)[C@@H]2CN1Cc2ccccc2C1=O [Example 59, (1S,2R)-2-((S)-8-((1-isopropyl-1H-1,2,3-triazol-4-yl)methoxy)-5-methyl-1-((1-oxoisoindolin-2-yl)methyl)-1,2,3,4-tetrahydroisoquinoline-2-carbonyl)cyclohexane-1-carboxylic acid], the EC50 [1] was 21 nM and the IC50 [2] was 11 nM.
Work on CC(C)n1cc(COc2ccc(C#N)c3c2[C@@H](CN2Cc4ccccc4C2=O)N(C(=O)[C@@H]2CCCC[C@@H]2C(=O)O)CC3)nn1 [Example 60, (1S,2R)-2-((S)-5-cyano-8-((1-isopropyl-1H-1,2,3-triazol-4-yl)methoxy)-1-((1-oxoisoindolin-2-yl)methyl)-1,2,3,4-tetrahydroisoquinoline-2-carbonyl)cyclohexane-1-carboxylic acid] yielded an EC50 [1] of 2.8 nM and an IC50 [2] of 96 nM.
COc1ccc(OCc2cn(C(C)C)nn2)c2c1CCN(C(=O)[C@@H]1CCCC[C@@H]1C(=O)O)[C@@H]2CN1Cc2ccccc2C1=O [Example 61, (1S,2R)-2-((S)-8-((1-isopropyl-1H-1,2,3-triazol-4-yl)methoxy)-5-methoxy-1-((1-oxoisoindolin-2-yl)methyl)-1,2,3,4-tetrahydroisoquinoline-2-carbonyl)cyclohexane-1-carboxylic acid] gave an EC50 [1] of 63 nM and an IC50 [2] of 5.6 nM.
CC(C)n1cc(COc2ccc(C(F)(F)F)c3c2[C@@H](CN2Cc4ccccc4C2=O)N(C(=O)[C@@H]2CCCC[C@@H]2C(=O)O)CC3)nn1 [Example 62, (1S,2R)-2-((S)-8-((1-isopropyl-1H-1,2,3-triazol-4-yl)methoxy)-1-((1-oxoisoindolin-2-yl)methyl)-5-(trifluoromethyl)-1,2,3,4-tetrahydroisoquinoline-2-carbonyl)cyclohexane-1-carboxylic acid] showed an EC50 [1] of 120 nM and an IC50 [2] of 14 nM.
O=C(O)[C@H]1CCCC[C@H]1C(=O)N1CCc2c(Br)ccc(O[C@H]3CCN(C(=O)c4cncs4)C3)c2[C@H]1CN1CCCC1=O [Example 63, (1S,2R)-2-((S)-5-bromo-1-((2-oxopyrrolidin-1-yl)methyl)-8-(((S)-1-(thiazole-5-carbonyl)pyrrolidin-3-yl)oxy)-1,2,3,4-tetrahydroisoquinoline-2-carbonyl)cyclohexane-1-carboxylic acid] was tested, and the EC50 [1] was 84 nM and the IC50 [2] was 9.1 nM.
For O=C(O)[C@H]1CCCC[C@H]1C(=O)N1CCc2c(Br)ccc(OCc3nnc4ccccn34)c2[C@H]1CN1CCCC1=O [Example 64, (1S,2R)-2-((S)-8-[(1,2,4]triazolo[4,3-a]pyridin-3-ylmethoxy)-5-bromo-1-((2-oxopyrrolidin-1-yl)methyl)-1,2,3,4-tetrahydroisoquinoline-2-carbonyl)cyclohexane-1-carboxylic acid], the EC50 [1] was 23 nM and the IC50 [2] was 6.3 nM.
Cc1cnc(COc2ccc(Br)c3c2[C@@H](CN2CCCC2=O)N(C(=O)[C@@H]2CCCC[C@@H]2C(=O)O)CC3)s1 [Example 65, (1S,2R)-2-((S)-5-bromo-8-((5-methylthiazol-2-yl)methoxy)-1-((2-oxopyrrolidin-1-yl)methyl)-1,2,3,4-tetrahydroisoquinoline-2-carbonyl) cyclohexane-1-carboxylic acid] was tested, and the EC50 [1] was 97 nM and the IC50 [2] was 11 nM.
In the case of CC(C)c1nc(COc2ccc(Br)c3c2[C@@H](CN2CCCC2=O)N(C(=O)[C@@H]2CCCC[C@@H]2C(=O)O)CC3)no1 [Example 66, (1S,2R)-2-((S)-5-bromo-8-((5-isopropyl-1,2,4-oxadiazol-3-yl)methoxy)-1-((2-oxopyrrolidin-1-yl)methyl)-1,2,3,4-tetrahydroisoquinoline-2-carbonyl) cyclohexane-1-carboxylic acid], the EC50 [1] is reported as 27 nM and the IC50 [2] is reported as 5.7 nM.
For O=C(O)[C@H]1CCCC[C@H]1C(=O)N1CCc2c(Br)ccc(OCc3noc4ccccc34)c2[C@H]1CN1CCCC1=O [Example 67], the EC50 [1] was 4.8 nM and the IC50 [2] was 8.5 nM.
